How the values were obtained:
Skin = assay: Dermal irritation study (primary irritation of the skin); format: in vivo; settings: 0.5 ml/patch, 4 patches on each of 6 rabbits
Method: The test procedure employed is described as Local Toxicity, Primary Irritation of the Skin in “Appraisal of the Safety of Chemicals in Foods, Drugs and Cosmetics” published by the Food & Drug Officials of the United States.
The dose to test the response was 0.5 ml/patch with 4 patches on each of 6 rabbits. The results indicated a primary skin irritation index of 2.375.

Rats = assay: Oral LD50; format: in vivo
Source text: The test procedure employed is described in the “Appraisal of the Safety of Chemicals in Foods, Drugs and Cosmetics” published by the Food & Drug Officials of the United States.

rabbit eyes = assay: Eye irritation study; format: in vivo, albino rabbits; settings: 0.1 ml instilled into one eye, nine rabbits
Method: The test procedure employed is described in the Appraisal of the Safety of Chemicals in Foods, Drugs and Cosmetics, published by the Association of Food and Drug Officials of the United States. Nine normal healthy albino rabbits were used for this study.
Each of the nine animals had 0.1 ml of the test material (benzyl linoleate) instilled into one eye of each test animal. The other eye was untreated and observed as a control. Two seconds after instillation of the test material, a washout was conducted in 3 of the rabbits using 20 ml. of warm water. Four seconds after test material instillation, washout was conducted in 3 additional rabbits using 20 ml. of warm water. All animals were examined frequently during the seven following days.

Structure (SMILES): CCCCC/C=C\C/C=C\CCCCCCCC(=O)OCc1ccccc1 [Benzyl Linoleate]
- primary skin irritation index (Skin): 2.375
- skin irritation classification in this test system (Skin): moderate irritant
- Oral LD50 (Rats; rat, in vivo, po): 7.0 mL/kg
- gross autopsy findings on dead animals (Rats; rats, oral LD50 study): hemorrhagic lungs, dark livers and spleens, slight hemorrhagic stomachs and intestines and pale kidneys
- eye irritation classification according to the reference (rabbit eyes): non-irritating
- irritation in rabbit eyes (rabbit eyes; with and without washout, observed seven days): no irritation

From patent publication US6365629B1, “Fatty acid esters of aromatic alcohols and their use in cosmetic formulations” (Alto, Inc., priority 1999, dated 2002)
